Measurements from patent publication US20110135738A1, “SINGLE DOSAGE PHARMACEUTICAL FORMULATION COMPRISING EPROSARTAN MESYLATE” (LEK Pharmaceutical S. D. D., priority 2008, published 2011).

How the values were obtained:
[1] = Flowability of powder / final mixture; type: physicochemical; conditions: drug per se
[2] = X-ray diffraction analysis of eprosartan mesylate form / physical stability; type: physicochemical; conditions: ambient temperature and humidity
Experimental: During the dry granulation processes using different excipients from the list above, physical stability of the eprosartan mesylate anhydrate was investigated. […] The final tablet form and placebo powder were analyzed by X-ray diffraction (XRD) pattern to confirm presence of anhydrous form of eprosartan mesylate.
Diffractograms were collected on X′Pert PRO MPD diffractometer using CuKα radiation.
Data were recorded from 2 do 40° 2θ; in steps of 0.033° 2θ; with the integration times 50 s (routine testing) and from 4 do 20° 2θ; in steps of 0.033° 2θ; with the integration times 2000 s (to achieve lower LOD). The range for measurements with longer integration times was chosen according to the known diffractograms of eprosartan mesylate crystalline forms, which all have characteristic peaks in the carefully measured range between 4 and 20° 2theta.

[3] = oral; cited from earlier work
[4] = cited from earlier work
[5] = at RH over 60%; cited from earlier work

## CCCCc1ncc(/C=C(\Cc2cccs2)C(=O)O)n1Cc1ccc(C(=O)O)cc1.CS(=O)(=O)O [Eprosartan mesylate, (E)-α-[2-n-butyl-1-[(4-carboxyphenyl)methyl]-1H-imidazol-5-yl]methylene-2-thiophenepropionic acid monomethanesulfonate]
[1]
  flowability of eprosartan mesylate: below 0.15 g/sec
[2]
  physical and chemical stability of anhydrous form: physically and chemically stable
[3]
  bioavailability: 13%
[4]
  permeability across the intestinal epithelium: low permeability
[5]
  interconversion of anhydrous form: interconverts to eprosartan mesylate mono- and later to dihydrate
